Columns and labels:
[1] = tested on: phosphorylated/total Akt and Raf-1; assay: Western blotting of Hsp90 client proteins in multiple cancer cell lines; assay type: cell-based, human; settings: BT474/MCF-7/SK-Br3, 1975, HT1080, 4-4/HUH7, PC3, 2008, U87MG, HT29
Text: FIGS. 10A and 10B show the effect of CP9 on the expression of Raf-1, phosphorylated Akt, and total Akt in 1975 lung cancer, BT474 breast cancer and HuH-7 liver cancer as determined by western blotting. α-Tubulin was used as the loading control.
CP9 had no effect on the expression of the Hsp90 client proteins in normal mouse embryonic fibroblasts (MEF) cells (FIG. 10C).

Hsp90α/p23 interactions = target: T1, Hsp90α/p23 interactions (Homo sapiens, UniProt P07900); assay: RL/FL bioluminescence imaging of 293T xenografts in living mice; assay type: in vivo; settings: CP9 80 mg/kg i.p.
T1 construct: expressed in transfected cells; also with FL-eGFP reporter (293Tα-FG) and as xenografts in nude mice
Experimental: (§1) Maximum radiance (photons/sec/cm^2/sr) from RL signals was normalized to that of FL signals at each site and at each time point to account for the effect of CP9 on cell proliferation. The RL/FL ratios were normalized to that of time 0 h to monitor the individual change in Hsp90(α/β)/p23 interactions in each mouse over time. Results were expressed as mean±S.E.M for the control and treatment groups for Hsp90α/p23 (left panel) and Hsp90β/p23 interactions (right panel).
(§2) To monitor the inhibition of Hsp90(α/β)/p23 interactions by CP9 in living mice, a second reporter (FL-eGFP) was introduced into the 293T cells stably expressing Hsp90(α/β)/p23 split RL reporters (now referred as 293T(α/β)—FG cells). Although ^18F-FLT has also been used to monitor tumor cell proliferation in small animals by PET (Tseng et al., (2005) J. Nucl. Med. 46: 1851-1857), FL imaging was used because of the higher sensitivity and ease of performing sequentially with RL imaging for Hsp90(α/β)/p23 interactions. […] Baseline RL and FL signals in each implanted tumor were determined upon i.v. substrate injection.
(§3) Based on experience with the Hsp90 inhibitors 17-AAG and PU-H71, CP9 (80 mg/kg) (n=5) was tested in animal experiments by i.p. injection with four doses at […] post baseline imaging (FIG. 7A). An equal volume of DMSO was injected into the carrier control group (n=5, FIG. 7B). Mice treated with 75 mg/kg PU-H71 (n=2) served as positive controls. Mice were re-imaged for Hsp90(α/β)/p23 interactions and cell proliferation via RL (FIG. 5B, left panels) and FL (FIG. 5B, right panels) imaging at the time points indicated, respectively. To account for the effect of cell number on Hsp90(α/β)/p23 interactions, RL signals were normalized to FL signals for each tumor at each time point, prior to normalization to that of time 0 h.
(§4) Mice were gas anesthetized using isofluorane (2% in 100% oxygen, 1 L/min) during all injection and imaging procedures and kept at 37° C. Mice were imaged using a cooled CCD camera (IVIS 200, Caliper Life Sciences, Mountain View, Calif.). […] Baseline RL activities in the implanted tumors in living mice were determined by i.v. injection of 30 μg cltz (in 150 μl of 5% ethanol: 95% PBS) and image acquisition of 3 mins. After a 30 mins wait for RL signals to decay, FL activities were determined by i.v. injection of 163 μg of D-Luc in 100 μl PBS with image acquisition of 10 sequences for 15 sec each to obtain the peak max radiance. […] Maximum radiance of RL was divided by that of FL signals at each time point, prior to normalization to that of time 0 hr for each individual mouse, and expressed as average radiance±S.E.M for each treatment group.

Hsp90β/p23 interactions = target: T2, Hsp90β/p23 interactions (Homo sapiens, UniProt P08238); assay: as above; assay type: in vivo; settings: CP9 80 mg/kg i.p., p>0.05
T2 construct: expressed in transfected cells; also with FL-eGFP reporter (293Tβ-FG) and as xenografts in nude mice
T2 sequence (P08238 whole entry): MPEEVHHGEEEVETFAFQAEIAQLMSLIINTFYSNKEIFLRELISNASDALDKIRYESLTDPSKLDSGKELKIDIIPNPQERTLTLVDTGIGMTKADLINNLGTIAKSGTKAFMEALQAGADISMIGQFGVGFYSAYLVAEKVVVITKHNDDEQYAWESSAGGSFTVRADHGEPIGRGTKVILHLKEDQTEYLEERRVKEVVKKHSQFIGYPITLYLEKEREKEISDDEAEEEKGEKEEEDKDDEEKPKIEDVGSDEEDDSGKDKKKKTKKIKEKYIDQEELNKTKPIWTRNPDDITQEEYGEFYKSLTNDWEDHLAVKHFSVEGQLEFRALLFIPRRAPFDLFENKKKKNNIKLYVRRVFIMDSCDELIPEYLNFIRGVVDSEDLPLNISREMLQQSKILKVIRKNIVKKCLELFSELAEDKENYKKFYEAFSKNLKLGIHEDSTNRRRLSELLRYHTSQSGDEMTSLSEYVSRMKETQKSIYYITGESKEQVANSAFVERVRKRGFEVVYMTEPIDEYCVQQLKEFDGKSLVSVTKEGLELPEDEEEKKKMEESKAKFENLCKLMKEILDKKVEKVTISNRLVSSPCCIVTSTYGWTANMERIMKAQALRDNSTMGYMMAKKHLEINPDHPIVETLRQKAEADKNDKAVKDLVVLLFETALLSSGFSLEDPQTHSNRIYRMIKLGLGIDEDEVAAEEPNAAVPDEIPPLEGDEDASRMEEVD
Experimental: as §1, §2, §3, §4

Structure (SMILES): Cc1cc(NC(=O)CSc2nc(-c3cccs3)cc(C(F)(F)F)n2)no1 [CP9, N-(5-methylisoxazol-3-yl)-2-(4-(thiophen-2-yl)-6-(trifluoromethyl)pyrimidin-2-ylthio)acetamide]
- degradation of phosphorylated/total Akt and Raf-1 [1]: various levels of degradation
- RL/FL ratio in Hsp90α/p23 xenografts, normalized to time 0 h (Hsp90α/p23 interactions; 14 h): 122±39%
- RL/FL ratio in Hsp90α/p23 xenografts, normalized to time 0 h (Hsp90α/p23 interactions; 38 h, p<0.05 vs carrier control): 79±19%
- RL/FL ratio in Hsp90β/p23 xenografts, normalized to time 0 h (Hsp90β/p23 interactions; 14 h): 58±18%
- RL/FL ratio in Hsp90β/p23 xenografts, normalized to time 0 h (Hsp90β/p23 interactions; 38 h): 83±42%
